Measurements: the supplement of paper PMC13207355
Counter-ions that a name gives are not always drawn.

Key:
Conditions in all cases: exposure time: 72 h
[1] = system: E13 (patient-derived glioblastoma stem cells of classical subtype); assay: surviving fraction (nuclei count normalised to DMSO); higher = more cells surviving (less toxic)
[2] = system: E21 (patient-derived glioblastoma stem cells of mesenchymal subtype); assay: as above
[3] = system: E28 (patient-derived glioblastoma stem cells of classical subtype); assay: as above
[4] = system: E31 (patient-derived glioblastoma stem cells of proneural subtype); assay: as above
[5] = system: E34 (patient-derived glioblastoma stem cells of proneural subtype); assay: as above
[6] = system: E57 (patient-derived glioblastoma stem cells of mesenchymal subtype); assay: as above
[7] = system: FT3469 (normal neural stem cell line); assay: as above
[8] = system: E13; assay: phenotypic distance (Euclidean, principal components) from DMSO controls (arbitrary units); higher = stronger morphological change
[9] = system: E21; assay: as above
[10] = system: E28; assay: as above
[11] = system: E31; assay: as above
[12] = system: E34; assay: as above
[13] = system: E57; assay: as above
[14] = system: FT3469; assay: as above
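Wherever phenotypic distance (Euclidean, principal components) from DMSO controls is given: cell Painting imaging in 384-well plates, CellProfiler features reduced to at least 20 principal components, Euclidean distance versus same-plate DMSO vehicle wells (0.1% v/v), median over six images per well.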
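Wherever surviving fraction (nuclei count normalised to DMSO) is given: nuclei counted by high-content imaging of Hoechst-stained cells in laminin-coated 384-well plates, relative to 0.1% DMSO vehicle wells, with staurosporine as cell-death control.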

CCCCCCC[N+](CC)(CC)CCCCc1ccc(Cl)cc1 [Clofilium tosylate]
Conditions | phenotypic distance | surviving fraction
[1], 4.1 nM | – | 1.17
[1], 12.3 nM | – | 1.06
[1], 37 nM | – | 0.817
[1], 111.1 nM | – | 0.945
[1], 333.3 nM | – | 0.896
[1], 1000 nM | – | 0.937
[1], 3000 nM | – | 0.609
[2], 4.1 nM | – | 1
[2], 12.3 nM | – | 1.11
[2], 37 nM | – | 1.1
[2], 111.1 nM | – | 1
[2], 333.3 nM | – | 0.976
[2], 1000 nM | – | 1.12
[2], 3000 nM | – | 0.609
[3], 4.1 nM | – | 0.984
[3], 12.3 nM | – | 1.28
[3], 37 nM | – | 0.96
[3], 111.1 nM | – | 1.18
[3], 333.3 nM | – | 1.16
[3], 1000 nM | – | 1.05
[3], 3000 nM | – | 0.485
[4], 4.1 nM | – | 0.763
[4], 12.3 nM | – | 1.03
[4], 37 nM | – | 1.04
[4], 111.1 nM | – | 0.913
[4], 333.3 nM | – | 1.01
[4], 1000 nM | – | 0.95
[4], 3000 nM | – | 0.452
[5], 4.1 nM | – | 1.09
[5], 12.3 nM | – | 1.07
[5], 37 nM | – | 0.961
[5], 111.1 nM | – | 0.954
[5], 333.3 nM | – | 0.998
[5], 1000 nM | – | 1.02
[5], 3000 nM | – | 0.813
[6], 4.1 nM | – | 1.1
[6], 12.3 nM | – | 0.992
[6], 37 nM | – | 1.14
[6], 111.1 nM | – | 0.977
[6], 333.3 nM | – | 1.02
[6], 1000 nM | – | 0.959
[6], 3000 nM | – | 0.866
[7], 4.1 nM | – | 1.12
[7], 12.3 nM | – | 1.26
[7], 37 nM | – | 0.944
[7], 111.1 nM | – | 1.13
[7], 333.3 nM | – | 1.13
[7], 1000 nM | – | 1.07
[7], 3000 nM | – | 0.838
[8], 4.1 nM | 0.802 | –
[8], 12.3 nM | 1.25 | –
[8], 37 nM | 0.557 | –
[8], 111.1 nM | 0.985 | –
[8], 333.3 nM | 0.488 | –
[8], 1000 nM | 0.667 | –
[8], 3000 nM | 1.83 | –
[9], 4.1 nM | 0.676 | –
[9], 12.3 nM | 1 | –
[9], 37 nM | 1.04 | –
[9], 111.1 nM | 1.16 | –
[9], 333.3 nM | 1.29 | –
[9], 1000 nM | 1.68 | –
[9], 3000 nM | 3.13 | –
[10], 4.1 nM | 0.664 | –
[10], 12.3 nM | 1.16 | –
[10], 37 nM | 0.464 | –
[10], 111.1 nM | 0.925 | –
[10], 333.3 nM | 0.998 | –
[10], 1000 nM | 1.17 | –
[10], 3000 nM | 1.84 | –
[11], 4.1 nM | 0.758 | –
[11], 12.3 nM | 0.742 | –
[11], 37 nM | 0.443 | –
[11], 111.1 nM | 0.89 | –
[11], 333.3 nM | 0.62 | –
[11], 1000 nM | 1.43 | –
[11], 3000 nM | 2.44 | –
[12], 4.1 nM | 1 | –
[12], 12.3 nM | 1.05 | –
[12], 37 nM | 0.94 | –
[12], 111.1 nM | 1.17 | –
[12], 333.3 nM | 1.13 | –
[12], 1000 nM | 1.33 | –
[12], 3000 nM | 1.86 | –
[13], 4.1 nM | 0.657 | –
[13], 12.3 nM | 0.645 | –
[13], 37 nM | 0.931 | –
[13], 111.1 nM | 0.93 | –
[13], 333.3 nM | 0.68 | –
[13], 1000 nM | 0.764 | –
[13], 3000 nM | 1.73 | –
[14], 4.1 nM | 0.575 | –
[14], 12.3 nM | 1.1 | –
[14], 37 nM | 0.53 | –
[14], 111.1 nM | 1.01 | –
[14], 333.3 nM | 0.917 | –
[14], 1000 nM | 1.08 | –
[14], 3000 nM | 1.3 | –

COc1cc2c(c(OC)c1OC)-c1ccc(OC)c(=O)cc1[C@@H](NC(C)=O)CC2 [Colchicine]
Conditions | phenotypic distance | surviving fraction
[1], 4.1 nM | – | 0.247
[1], 12.3 nM | – | 0.187
[1], 37 nM | – | 0.165
[1], 111.1 nM | – | 0.14
[1], 333.3 nM | – | 0.151
[1], 1000 nM | – | 0.152
[1], 3000 nM | – | 0.178
[2], 4.1 nM | – | 0.171
[2], 12.3 nM | – | 0.125
[2], 37 nM | – | 0.133
[2], 111.1 nM | – | 0.137
[2], 333.3 nM | – | 0.136
[2], 1000 nM | – | 0.135
[2], 3000 nM | – | 0.139
[3], 4.1 nM | – | 0.546
[3], 12.3 nM | – | 0.244
[3], 37 nM | – | 0.335
[3], 111.1 nM | – | 0.295
[3], 333.3 nM | – | 0.291
[3], 1000 nM | – | 0.211
[3], 3000 nM | – | 0.207
[4], 4.1 nM | – | 0.131
[4], 12.3 nM | – | 0.0944
[4], 37 nM | – | 0.0551
[4], 111.1 nM | – | 0.0362
[4], 333.3 nM | – | 0.0614
[4], 1000 nM | – | 0.0519
[4], 3000 nM | – | 0.0425
[5], 4.1 nM | – | 0.406
[5], 12.3 nM | – | 0.368
[5], 37 nM | – | 0.389
[5], 111.1 nM | – | 0.284
[5], 333.3 nM | – | 0.318
[5], 1000 nM | – | 0.245
[5], 3000 nM | – | 0.267
[6], 4.1 nM | – | 0.21
[6], 12.3 nM | – | 0.0932
[6], 37 nM | – | 0.105
[6], 111.1 nM | – | 0.119
[6], 333.3 nM | – | 0.0902
[6], 1000 nM | – | 0.0976
[6], 3000 nM | – | 0.0829
[7], 4.1 nM | – | 0.487
[7], 12.3 nM | – | 0.468
[7], 37 nM | – | 0.367
[7], 111.1 nM | – | 0.301
[7], 333.3 nM | – | 0.263
[7], 1000 nM | – | 0.335
[7], 3000 nM | – | 0.229
[8], 4.1 nM | 5.49 | –
[8], 12.3 nM | 5.12 | –
[8], 37 nM | 6.59 | –
[8], 111.1 nM | 7.17 | –
[8], 333.3 nM | 8.24 | –
[8], 1000 nM | 7.42 | –
[8], 3000 nM | 7.88 | –
[9], 4.1 nM | 5.8 | –
[9], 12.3 nM | 5.88 | –
[9], 37 nM | 5.7 | –
[9], 111.1 nM | 5.45 | –
[9], 333.3 nM | 5.2 | –
[9], 1000 nM | 5.35 | –
[9], 3000 nM | 4.96 | –
[10], 4.1 nM | 2.89 | –
[10], 12.3 nM | 3.81 | –
[10], 37 nM | 4.44 | –
[10], 111.1 nM | 4.55 | –
[10], 333.3 nM | 5.48 | –
[10], 1000 nM | 4.51 | –
[10], 3000 nM | 5.17 | –
[11], 4.1 nM | 4.44 | –
[11], 12.3 nM | 6.48 | –
[11], 37 nM | 9.95 | –
[11], 111.1 nM | 12.2 | –
[11], 333.3 nM | 11.7 | –
[11], 1000 nM | 10.4 | –
[11], 3000 nM | 12.5 | –
[12], 4.1 nM | 3.32 | –
[12], 12.3 nM | 7.33 | –
[12], 37 nM | 9.15 | –
[12], 111.1 nM | 9.46 | –
[12], 333.3 nM | 7.78 | –
[12], 1000 nM | 7.61 | –
[12], 3000 nM | 10.5 | –
[13], 4.1 nM | 4.26 | –
[13], 12.3 nM | 4.49 | –
[13], 37 nM | 4.46 | –
[13], 111.1 nM | 4.55 | –
[13], 333.3 nM | 4.46 | –
[13], 1000 nM | 4.61 | –
[13], 3000 nM | 5.19 | –
[14], 4.1 nM | 3.51 | –
[14], 12.3 nM | 4.18 | –
[14], 37 nM | 5.37 | –
[14], 111.1 nM | 5.29 | –
[14], 333.3 nM | 4.34 | –
[14], 1000 nM | 5.12 | –
[14], 3000 nM | 4.51 | –
